Source: publication PMC5380139 (FEBS letters, 2017)

Molecular target: T1, LipL (Streptomyces sp., UniProt D4QF25)
T1 sequence (D4QF25 1-274): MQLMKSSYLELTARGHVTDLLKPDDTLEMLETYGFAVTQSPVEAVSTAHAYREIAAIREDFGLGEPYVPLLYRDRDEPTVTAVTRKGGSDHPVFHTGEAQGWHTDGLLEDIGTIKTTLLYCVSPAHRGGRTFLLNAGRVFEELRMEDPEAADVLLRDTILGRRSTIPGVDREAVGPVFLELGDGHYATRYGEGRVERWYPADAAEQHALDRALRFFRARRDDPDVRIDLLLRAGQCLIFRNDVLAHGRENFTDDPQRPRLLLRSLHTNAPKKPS
Format: biochemical

O=c1ccn([C@@H]2O[C@H](CCP(=O)(O)O)[C@@H](O)[C@H]2O)c(=O)[nH]1 [UMcP, 5′-deoxyuridine-5′-methylphosphonate]
Ki: 0.8 µM
